For one assay, the system named is 22RV1 / PC-3. The following applies: endogenous; ref [9] (supplement list); cited from earlier work. From the text:
(§1) Supplement pone.0146846.s004.docx, table 1 | column: Functional assay

The next assay relates to hC6A. To be noted: ref [9] (supplement list); cited from earlier work.
Description: as §1

Another assay concerns the target T1, mGPRC6A (mouse GPRC6A) (Mus musculus, UniProt Q8K4Z6).
T1 sequence (Q8K4Z6 21-928): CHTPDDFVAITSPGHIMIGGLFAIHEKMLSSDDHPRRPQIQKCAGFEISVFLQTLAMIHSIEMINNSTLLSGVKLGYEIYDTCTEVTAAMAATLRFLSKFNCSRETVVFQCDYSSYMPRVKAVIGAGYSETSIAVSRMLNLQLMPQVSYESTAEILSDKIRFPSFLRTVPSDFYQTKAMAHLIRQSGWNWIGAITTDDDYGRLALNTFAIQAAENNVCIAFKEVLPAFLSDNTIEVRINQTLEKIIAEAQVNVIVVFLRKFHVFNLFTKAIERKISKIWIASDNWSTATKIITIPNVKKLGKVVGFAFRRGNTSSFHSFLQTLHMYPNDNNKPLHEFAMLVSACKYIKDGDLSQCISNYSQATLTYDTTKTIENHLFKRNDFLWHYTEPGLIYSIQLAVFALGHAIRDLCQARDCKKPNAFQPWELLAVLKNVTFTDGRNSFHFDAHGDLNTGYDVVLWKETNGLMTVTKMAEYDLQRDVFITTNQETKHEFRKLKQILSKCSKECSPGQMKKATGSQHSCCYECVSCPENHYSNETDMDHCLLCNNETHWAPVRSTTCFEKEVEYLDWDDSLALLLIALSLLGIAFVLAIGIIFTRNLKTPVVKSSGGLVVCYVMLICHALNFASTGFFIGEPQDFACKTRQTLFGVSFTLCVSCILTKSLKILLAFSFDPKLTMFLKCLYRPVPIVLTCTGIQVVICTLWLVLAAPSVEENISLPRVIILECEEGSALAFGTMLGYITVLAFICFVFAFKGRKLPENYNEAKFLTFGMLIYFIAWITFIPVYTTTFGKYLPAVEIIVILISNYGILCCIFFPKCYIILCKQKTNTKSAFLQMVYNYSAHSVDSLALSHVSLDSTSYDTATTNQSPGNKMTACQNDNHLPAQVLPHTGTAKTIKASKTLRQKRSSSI
Put plainly: Label-free cell impedance (xCELLigence), tetracycline-induced FlpIn-TREx-HEK293-mGPRC6A cells. It is filed as cell-based. To be noted: tetracycline-induced; xCELLigence; Fig 4. How it is done:
(§2) 2.5 x 10^7 FlpIn-TREx-HEK293-mGPRC6A cells were seeded in a T175 flask and incubated overnight at 37°C in 5% CO2. Cells were then transfected with 35 μg of plasmid DNA (GαqG66D) with Lipofectamine LTX according to manufacturer's instructions, then incubated for 24h at 37°C in 5% CO2. Prior to the experiment, a background reading for each E-plate 96 (Bio-Rad, CA, USA) was measured after addition of 100 μl DMEM + 10% FBS per well. Cells were recovered using Versene and seeded at a 10^5 cells/well density in 200 μl DMEM + 10% FBS (containing 1 μg/ml tetracycline where indicated). Cells were washed 2 x 2 h in HBSS buffer (pH 7.2) containing 20 mM HEPES, 1 mM CaCl2 and 0.1% BSA (w/v) in a total volume of 180 μl. Test compounds (20 μl at 10x final concentration) were added to the plate and cell impedance was monitored for 3 h. Cell index was normalised to the buffer response (minus the baseline response at zero time point).
(§3) Concentration-response data were analysed using a three or four parameter logistic function (Motulsky & Christopoulos, 2004) to generate estimates of agonist potency (LogEC50). Data for all HEK293 assays represent the mean ± SEM of at least three independent experiments (except cell impedance, n = 2). For GLP-1 release, the data represent mean ± SEM of three to five independent experiments (except for OCN, wash; n = 2). For insulin release assays, data represent the mean ± SEM of three independent experiments (except for islet studies; n = 2). Insulin release data were normalised to the response to vehicle in either low or high [glucose]. Statistical analysis for GLP-1 release data were performed by one-way ANOVA, followed by Sidak’s multiple comparisons test (treating wash / no wash datasets separately). Statistical analyses for insulin release data were performed by two-way ANOVA (with [glucose] and drug treatment as group variables), followed by Sidak’s multiple comparisons test. Where only high [glucose] groups were evaluated, statistical analysis was by one-way ANOVA followed by Sidak’s multiple comparisons test.

Assay [1] has as its system un-induced FlpIn-TREx-HEK293-mGPRC6A cells. In words: Label-free cell impedance, un-induced FlpIn-TREx-HEK293-mGPRC6A cells. It counts as cell-based. The following applies: Fig 4. How it is done: as §2
The next assay deals with INS-1(832) cells. In words: Label-free cell impedance, INS-1(832) cells. It is filed as cell-based, rat. The following applies: Gprc6a-negative, EBSS, 2.8 mM glucose, Fig 7, two-way ANOVA, *P < 0.05, **P < 0.01 vs Vehicle. The method, then:
For INS-1 cells, 100 μl of medium (RPMI 1640 no glucose, 10% FBS, 55 μM β-mercaptoethanol, 1 mM sodium pyruvate, 10 mM HEPES, 100 U/ml penicillin, 100 μg/ml streptomycin, 11.1 mM glucose) was added per well to an E-plate 96 and a background reading taken. Cells were seeded at 2 x 10^4 / well and the plates incubated in the instrument for 48 h. On the day of the experiment, media was changed to EBSS buffer (180 μl; 2.8 mM glucose, 1.8 mM CaCl2, 5.3 mM KCl, 0.8 mM MgSO4, 117 mM NaCl, 26 mM NaHCO3, 1 mM NaH2PO4). After 2 h incubation, cells were stimulated with 20 μl test compound (10 x final) prepared in the same buffer. Data capture and analysis were as for HEK293 cells.

The next assay relates to MIN6 cells. In words: Insulin release from MIN6 cells. It is filed as cell-based, murine. The following applies: 16.7 mM glucose; P < 0.0001, two-way ANOVA; Fig 6B. The method, then: (§4) MIN6 or βTC-6 cells were seeded in 24-well plates at 170,000 cells per well in DMEM (containing 4.5g/L glucose, 10 mM HEPES, 100 U/ml penicillin, 100 μg/ml streptomycin and 15% de-complemented FBS) and incubated at 37°C / 5% CO2 for 72 h. Cells were then washed with 500 μl PBS and incubated in 500 μl deprivation media (DMEM with zero glucose, 10 mM HEPES, 1 mM Na-pyruvate, 100 U/ml penicillin, 100 μg/ml streptomycin, 15% de-complemented FBS) for 2 h at 37°C. Media was aspirated and after washing with 500 μl PBS, cells were treated with 250 μl of Krebs buffer (250 mM NaCl, 5.9 mM KCl, 1.2 mM MgCl2, 1.3 mM CaCl2, 25 mM HEPES, 0.1% BSA (w/v), and 2 mM or 16.7 mM glucose; pH 7.4) in the presence or absence of test compound. After incubation for 2 h at 37°C, the assay was terminated by placing the plates on ice and supernatants were transferred to a 96-well plate in preparation for insulin ELISA (Alpco) following manufacturer’s instructions. The cell monolayer was washed twice with 500 μl of PBS and then lysed using 250 μl of 1 N NaOH prior to protein measurement by the method of Bradford (1976).
as §3

The next assay has as its system β-TC6 cells. Put plainly: Insulin release from β-TC6 cells. It counts as cell-based, murine. To be noted: P < 0.001, P < 0.0001, two-way ANOVA, S3 Fig A. How it is done:
as §4, §3

The next assay has as its system mouse pancreatic islets. Put plainly: Insulin release from mouse pancreatic islets. It counts as cell-based. The following applies: n = 2; P < 0.001, P < 0.0001; S3 Fig B. How it is done:
Islets were collagenase-isolated from mice (10 x C57Bl/6; 12–13 weeks; Charles River) and incubated overnight in RPMI (with 10% FBS (v/v), 10 mM HEPES, 100 U/ml penicillin, 100 μg/ml streptomycin, sodium pyruvate and 10 mM glucose) at 37°C in 5% CO2. Islets were seeded into a 96-well plate (4 / well) in Kreb’s buffer containing 2.8 mM glucose and washed twice with the same buffer. 200 μl test drugs were added in Kreb’s buffer with the required concentration of glucose and incubated at 37°C in 5% CO2 for 90 min. The plate was centrifuged for 10 s at 200 g, supernatant recovered and insulin levels detected as described above. This protocol was approved by the IDRS (Institut de Recherches Servier) Institutional Animal Care and Use Committee.
as §3

“Also recorded” adds a separate entry of the source. Ends that are not written are not given here.

On to `[Cl-].[Cl-].[Zn+2]` [ZnCl2], for which the pERK1/2 response entry is reported as “pERK1/2 – response to Ca^2+, ZnCl2, OCN, Arginine, Testosterone-BSA Proliferation – response to Ca^2+, OCN PSA, Runx2 expression – response to OCN, Arg, R1881 Chemotaxis (22RV1) – response to Ca^2+, OCN” in the assay with 22RV1 / PC-3 and “pERK1/2 – response to Ca^2+, ZnCl2, OCN, Arginine, Testosterone-BSA” with hC6A.

For the compound `Nc1ncnc2c1ncn2[C@@H]1O[C@H](COP(=O)(O)OP(=O)(O)OP(=O)(O)O)[C@@H](O)[C@H]1O` [ATP], the “cell impedance (cell index) response” value (at mGPRC6A (mouse GPRC6A); in assay [1]) was “concentration-dependent increase in cell index; also recorded: increases cellular impedance” in each case.

In the case of “Bovine OCN: Purified bovine osteocalcin from bone (Meridian Life Science), carboxylated / under-carboxylated (YLDHWLGAPAPYPDPLEPKREVCELNPDCDELADHIGFQEAYRRFYGPV; ends and bridges not checked; also: γ-carboxyglutamic acid residues, partially carboxylated)”, the “cell impedance (cell index) response” value (in the assay with mGPRC6A (mouse GPRC6A); in assay [1]) was “did not change cell impedance” in each case. Further, the “change in cell impedance (cell index)” value was “significant, concentration-dependent activity” with INS-1(832) cells and “significant changes in cell impedance; also recorded: Concentration-dependent increases in cell index” in the assay on INS-1(832) cells (listed as purified bovine OCN).

As to `OC[C@H]1OC(O)[C@H](O)[C@@H](O)[C@@H]1O` (stereo partly drawn) [glucose], the “insulin secretion, glucose effect” value is listed as “significantly promoted insulin secretion; also recorded: significantly enhanced insulin secretion” in the assay on MIN6 cells, “released insulin in a glucose-sensitive manner” with β-TC6 cells, “significantly enhanced insulin secretion” with β-TC6 cells (listed as Glucose) and “released insulin in a glucose-sensitive manner; also recorded: significantly enhanced insulin secretion” in the assay on mouse pancreatic islets.

The record behind these values is paper PMC4718634, “Murine GPRC6A Mediates Cellular Responses to L-Amino Acids, but Not Osteocalcin Variants” (PLoS ONE, 2016).
